Source: PubChem BioAssay (NCI)
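Interpolation was linear, between the two tested concentrations surrounding the appropriate level; five concentrations were tested over 48 hours in 96-well plates. At the GI50, growth is halved. TGI: concentration producing complete growth inhibition.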

How the values were obtained:
Experiment in all cases: NCI-60 cell line screen, 48 h
OVCAR-8 ovarian = tested on: OVCAR-8 ovarian
U251 CNS = tested on: U251 CNS
T-47D breast = tested on: T-47D breast
DU-145 prostate = tested on: DU-145 prostate
HL-60(TB) leukemia = tested on: HL-60(TB) leukemia
SK-OV-3 ovarian = tested on: SK-OV-3 ovarian
SF-295 CNS = tested on: SF-295 CNS
ACHN renal = tested on: ACHN renal
LOX IMVI melanoma = tested on: LOX IMVI melanoma
UACC-62 melanoma = tested on: UACC-62 melanoma
MDA-MB-468 breast = tested on: MDA-MB-468 breast
SF-539 CNS = tested on: SF-539 CNS
SF-268 CNS = tested on: SF-268 CNS
CCRF-CEM leukemia = tested on: CCRF-CEM leukemia
SK-MEL-5 melanoma = tested on: SK-MEL-5 melanoma
HCT-15 colon = tested on: HCT-15 colon
TK-10 renal = tested on: TK-10 renal
EKVX NSCLC = tested on: EKVX NSCLC
MOLT-4 leukemia = tested on: MOLT-4 leukemia
IGROV1 ovarian = tested on: IGROV1 ovarian
NCI-H522 lung = tested on: NCI-H522 lung
MCF7 breast = tested on: MCF7 breast
SK-MEL-2 melanoma = tested on: SK-MEL-2 melanoma
KM12 colon = tested on: KM12 colon
NCI-H460 lung = tested on: NCI-H460 lung
SN12C renal = tested on: SN12C renal
SNB-19 CNS = tested on: SNB-19 CNS
COLO 205 colon = tested on: COLO 205 colon
A549 NSCLC = tested on: A549 NSCLC
NCI-H23 lung = tested on: NCI-H23 lung
NCI/ADR-RES ovarian = tested on: NCI/ADR-RES ovarian
UACC-257 melanoma = tested on: UACC-257 melanoma
HOP-62 NSCLC = tested on: HOP-62 NSCLC
OVCAR-3 ovarian = tested on: OVCAR-3 ovarian
NCI-H226 lung = tested on: NCI-H226 lung
A498 renal = tested on: A498 renal
K-562 leukemia = tested on: K-562 leukemia
SK-MEL-28 melanoma = tested on: SK-MEL-28 melanoma
OVCAR-5 ovarian = tested on: OVCAR-5 ovarian
SNB-75 CNS = tested on: SNB-75 CNS
MDA-MB-435 = tested on: MDA-MB-435
HS 578T breast = tested on: HS 578T breast
RPMI-8226 leukemia = tested on: RPMI-8226 leukemia
MALME-3M melanoma = tested on: MALME-3M melanoma
M14 melanoma = tested on: M14 melanoma
HT29 colon = tested on: HT29 colon
BT-549 breast = tested on: BT-549 breast
HCC-2998 colon = tested on: HCC-2998 colon
RXF 393 renal = tested on: RXF 393 renal
786-0 renal = tested on: 786-0 renal
HOP-92 NSCLC = tested on: HOP-92 NSCLC
SW-620 colon = tested on: SW-620 colon
HCT-116 colon = tested on: HCT-116 colon
PC-3 prostate = tested on: PC-3 prostate
CAKI-1 renal = tested on: CAKI-1 renal
OVCAR-4 ovarian = tested on: OVCAR-4 ovarian

Compound: Cc1cc(C)cc(Oc2cccc(-c3c(C)nnn3C3CCN(CCN(C)C)CC3)n2)c1
- GI50 (OVCAR-8 ovarian): 1.88 µM
- TGI (OVCAR-8 ovarian): 13.7 µM
- GI50 (U251 CNS): 3.16 µM
- TGI (U251 CNS): 15.3 µM
- GI50 (T-47D breast): 2 µM
- TGI (T-47D breast): 24.3 µM
- GI50 (DU-145 prostate): 12.3 µM
- TGI (DU-145 prostate): 34 µM
- GI50 (HL-60(TB) leukemia): 0.134 µM
- TGI (HL-60(TB) leukemia): 1.18 µM
- GI50 (SK-OV-3 ovarian): 0.893 µM
- TGI (SK-OV-3 ovarian): 3.52 µM
- GI50 (SF-295 CNS): 4.72 µM
- TGI (SF-295 CNS): 19.4 µM
- GI50 (ACHN renal): 2.01 µM
- TGI (ACHN renal): 15.7 µM
- GI50 (LOX IMVI melanoma): 1.28 µM
- TGI (LOX IMVI melanoma): 7.21 µM
- GI50 (UACC-62 melanoma): 0.554 µM
- TGI (UACC-62 melanoma): 5.24 µM
- GI50 (MDA-MB-468 breast): 1.07 µM
- TGI (MDA-MB-468 breast): 3.73 µM
- GI50 (SF-539 CNS): 1.71 µM
- TGI (SF-539 CNS): 8.22 µM
- GI50 (SF-268 CNS): 4.56 µM
- TGI (SF-268 CNS): 20.1 µM
- GI50 (CCRF-CEM leukemia): 0.951 µM
- TGI (CCRF-CEM leukemia): 5.13 µM
- GI50 (SK-MEL-5 melanoma): 1.4 µM
- TGI (SK-MEL-5 melanoma): 4.95 µM
- GI50 (HCT-15 colon): 1.41 µM
- TGI (HCT-15 colon): 11.2 µM
- GI50 (TK-10 renal): 0.707 µM
- TGI (TK-10 renal): 13.1 µM
- GI50 (EKVX NSCLC): 4.8 µM
- TGI (EKVX NSCLC): 21.1 µM
- GI50 (MOLT-4 leukemia): 1.85 µM
- TGI (MOLT-4 leukemia): 6.74 µM
- GI50 (IGROV1 ovarian): 5.15 µM
- TGI (IGROV1 ovarian): 18.7 µM
- GI50 (NCI-H522 lung): 1.23 µM
- TGI (NCI-H522 lung): 4.41 µM
- GI50 (MCF7 breast): 0.715 µM
- TGI (MCF7 breast): 12.3 µM
- GI50 (SK-MEL-2 melanoma): 2.4 µM
- TGI (SK-MEL-2 melanoma): 12.5 µM
- GI50 (KM12 colon): 2.72 µM
- TGI (KM12 colon): 16.6 µM
- GI50 (NCI-H460 lung): 2.45 µM
- TGI (NCI-H460 lung): 13.1 µM
- GI50 (SN12C renal): 4.27 µM
- TGI (SN12C renal): 18.6 µM
- GI50 (SNB-19 CNS): 5.51 µM
- TGI (SNB-19 CNS): 20.8 µM
- GI50 (COLO 205 colon): 0.632 µM
- TGI (COLO 205 colon): 10.8 µM
- GI50 (A549 NSCLC): 1.46 µM
- TGI (A549 NSCLC): 12.9 µM
- GI50 (NCI-H23 lung): 3.43 µM
- TGI (NCI-H23 lung): 16.1 µM
- GI50 (NCI/ADR-RES ovarian): 2.63 µM
- TGI (NCI/ADR-RES ovarian): 14.3 µM
- GI50 (UACC-257 melanoma): 1.48 µM
- TGI (UACC-257 melanoma): 15.8 µM
- GI50 (HOP-62 NSCLC): 1.13 µM
- TGI (HOP-62 NSCLC): 12.9 µM
- GI50 (OVCAR-3 ovarian): 1.66 µM
- TGI (OVCAR-3 ovarian): 6.66 µM
- GI50 (NCI-H226 lung): 2.44 µM
- TGI (NCI-H226 lung): 17.2 µM
- GI50 (A498 renal): 1.45 µM
- TGI (A498 renal): 7.52 µM
- GI50 (K-562 leukemia): 0.671 µM
- TGI (K-562 leukemia): 6.82 µM
- GI50 (SK-MEL-28 melanoma): 3.9 µM
- TGI (SK-MEL-28 melanoma): 18.7 µM
- GI50 (OVCAR-5 ovarian): 3.61 µM
- TGI (OVCAR-5 ovarian): 22.1 µM
- GI50 (SNB-75 CNS): 0.59 µM
- TGI (SNB-75 CNS): 8.53 µM
- GI50 (MDA-MB-435): 1.6 µM
- TGI (MDA-MB-435): 14.3 µM
- GI50 (HS 578T breast): 1.77 µM
- TGI (HS 578T breast): 9.43 µM
- GI50 (RPMI-8226 leukemia): 0.378 µM
- TGI (RPMI-8226 leukemia): 2.78 µM
- GI50 (MALME-3M melanoma): 2.08 µM
- TGI (MALME-3M melanoma): 13.7 µM
- GI50 (M14 melanoma): 1.08 µM
- TGI (M14 melanoma): 11.5 µM
- GI50 (HT29 colon): 0.742 µM
- TGI (HT29 colon): 5.54 µM
- GI50 (BT-549 breast): 1.67 µM
- TGI (BT-549 breast): 3.65 µM
- GI50 (HCC-2998 colon): 4.15 µM
- TGI (HCC-2998 colon): 17.8 µM
- GI50 (RXF 393 renal): 3.52 µM
- TGI (RXF 393 renal): 12.6 µM
- GI50 (786-0 renal): 0.939 µM
- TGI (786-0 renal): 3.89 µM
- GI50 (HOP-92 NSCLC): 0.455 µM
- TGI (HOP-92 NSCLC): 15.4 µM
- GI50 (SW-620 colon): 2.73 µM
- TGI (SW-620 colon): 16.2 µM
- GI50 (HCT-116 colon): 1.41 µM
- TGI (HCT-116 colon): 10.1 µM
- GI50 (PC-3 prostate): 2.07 µM
- TGI (PC-3 prostate): 17.2 µM
- GI50 (CAKI-1 renal): 0.745 µM
- TGI (CAKI-1 renal): 15.6 µM
- GI50 (OVCAR-4 ovarian): 3.1 µM
- TGI (OVCAR-4 ovarian): 21 µM
